Test [1] concerns CD11b and CD24 positive cells. Description: In vivo efficacy study: flow cytometry of blood leukocytes from mice bearing NZM12 human melanoma xenografts. Set-up: species or system NIH-III female mice. The following applies: dosed daily for 14 days. Background: In flow cytometry, cells or beads pass a laser one at a time.
Another test deals with CSF-1R (FMS) (Homo sapiens (Human), UniProt P07333). Conditions: representative value, substrate Tyr 01, ATP Bin 500 μM; read-out: IC50 (nM) of known inhibitor, CSF-1R (FMS); cited from earlier work.

SMILES strings stand for the structures. Where a name gives a salt, the structure may show the parent alone.

CSF-1R (FMS), sequence (P07333 20-972): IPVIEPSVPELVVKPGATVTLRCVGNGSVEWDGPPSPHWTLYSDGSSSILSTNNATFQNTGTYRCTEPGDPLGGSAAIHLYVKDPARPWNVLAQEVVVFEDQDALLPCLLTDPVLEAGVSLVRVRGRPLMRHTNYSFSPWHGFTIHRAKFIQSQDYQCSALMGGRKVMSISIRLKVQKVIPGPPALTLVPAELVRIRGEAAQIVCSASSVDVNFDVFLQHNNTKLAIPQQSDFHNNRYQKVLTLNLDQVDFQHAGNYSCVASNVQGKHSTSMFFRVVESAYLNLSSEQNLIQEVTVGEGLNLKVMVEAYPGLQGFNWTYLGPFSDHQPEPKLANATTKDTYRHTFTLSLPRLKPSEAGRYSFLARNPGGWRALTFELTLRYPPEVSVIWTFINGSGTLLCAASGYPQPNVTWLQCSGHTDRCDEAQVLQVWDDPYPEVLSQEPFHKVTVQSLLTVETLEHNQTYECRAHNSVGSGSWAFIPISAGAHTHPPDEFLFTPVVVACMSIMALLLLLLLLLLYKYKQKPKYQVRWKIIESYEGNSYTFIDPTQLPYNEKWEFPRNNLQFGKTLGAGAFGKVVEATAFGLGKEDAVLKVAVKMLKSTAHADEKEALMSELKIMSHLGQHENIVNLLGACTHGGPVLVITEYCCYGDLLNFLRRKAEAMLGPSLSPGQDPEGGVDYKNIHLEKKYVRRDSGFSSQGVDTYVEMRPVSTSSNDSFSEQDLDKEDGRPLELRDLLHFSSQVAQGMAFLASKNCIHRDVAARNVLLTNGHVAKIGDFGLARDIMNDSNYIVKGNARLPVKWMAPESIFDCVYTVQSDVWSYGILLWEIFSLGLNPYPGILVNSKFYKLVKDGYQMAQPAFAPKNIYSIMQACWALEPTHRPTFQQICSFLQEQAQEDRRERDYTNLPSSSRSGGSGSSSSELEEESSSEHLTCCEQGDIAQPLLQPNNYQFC

With `Cc1cc(OCCN(C)C)c2oc3cc(Oc4ccc(CCC(=O)NC5CCCC5)nc4)ccc3c(=O)c2c1` [dimethanesulfonate salt of compound 22, N-cyclopentyl-3-(5-((5-(2-(dimethylamino)ethoxy)-7-methyl-9-oxo-9H-xanthen-3-yl)-oxy)pyridin-2-yl)propanamide], the “number of cells of myeloid lineage in the treated mice” value in test [1] was “reduce the number of cells of myeloid lineage”. Besides, the “levels of CD11b positive cells” value in test [1] (blood leukocytes, versus PLX3397 and control (FIG. 1)) is “reduced the levels of CD11b and CD24 positive cells to a similar or greater extent compared with treatment with PLX3397”. In addition, the “levels of CD24 positive cells” value in test [1] (blood leukocytes, versus PLX3397 and control (FIG. 2)) is “reduced the levels of CD11b and CD24 positive cells to a similar or greater extent compared with treatment with PLX3397”.
Turning to `FC(F)(F)c1ccc(CNc2ccc(Cc3c[nH]c4ncc(Cl)cc34)cn2)cn1` [PLX3397, Pexidartinib, reference compound], in test [1], the “number of cells of myeloid lineage in the treated mice” value is “reduce the number of cells of myeloid lineage”.
With `COc1cc2ncnc(Nc3cccc(Cl)c3)c2cc1OC` [Tyrphostin AG1478], at CSF-1R (FMS), the IC50 – broadly, the concentration needed to halve the response being measured – was 6480 nM.

(Values after patent publication US11028064B2, “Tricyclic heterocyclic derivatives and uses thereof” (AUCKLAND UNISERVICES LIMITED, priority 2016, dated 2021).)
